Assays:
[1] = system: T. cruzi; assay: 2D-GE plasma proteome profile (differential protein expression) of T. cruzi-infected rats treated with PBN and/or BZ; assay type: in vivo, rat; conditions: plasma, RCP/RCB/RCPB groups (chronic infection)
From the text: Certain embodiments include biomarkers identified in a previous study. Parasite persistence and oxidative damage in the heart are known to be of pathological significance during Chagas disease (Zacks et al., (2005) An Acad Bras Cienc, 77, 695-715; Gupta et al., (2009) Interdiscip Perspect Infect Dis, 2009, 190354). […] In the previous study the inventors identified 92 proteins that were differentially expressed or oxidized in chagasic plasma. Functional analysis allocated a majority of these proteins to inflammation/immunity and lipid metabolism categories, and to molecular pathways associated with cardiovascular dysfunction, e.g., myocardial infarction, hypertrophy, and fibrosis, and pulmonary embolism and hypertension. Some proteins in chagasic rats treated with PBN and/or BZ were allocated to curative pathways (immune regulation and cardiac remodeling). The 2D-GE results were validated by Western blotting. […] Increased plasma levels of GSN, MYL2, and VIM were directly correlated with the severity of cardiac disease in human chagasic patients. […] These findings have utility in diagnosing disease severity and designing suitable therapy for management of human chagasic patients.
Ingenuity Pathway Analysis (IPA) is a highly curated and comprehensive software used for the integration of proteins into networks and pathways with biological meaning (Thomas and Bonchev, (2010). Hum Genomics, 4, 353-360). Network analysis of the plasma proteome profile of chagasic rats identified four major sub-networks linked to host response to T. cruzi infection and disease development (Table V). The maximal numbers of the differentially expressed plasma proteins (19 proteins) in chagasic rats were associated with antigen presentation and inflammatory response category (Table V) and indicators of persistent inflammation, known to be of pathological significance in Chagas disease (Dhiman et al., (2009) Clinical and Vaccine Immunology, 16, 660-666; Tanowitz et al., (2009) Prog Cardiovasc Dis, 51, 524-539; Junqueira et al., (2010) Expert Rev Mol Med, 12, e29). Following functional analysis of the inflammation-associated proteins, 12 proteins (APOA1, APOE, C3, CFB, CFH, FGB, GSN, KRT10, PLG, SCG2, SERPINA1, and SERPINC1) were identified as being involved in immune cell trafficking and cell movement of leukocytes, granulocytes, phagocytes, neutrophils, and dendritic and antigen presenting cells. Some of the differentially expressed proteins in inflammation category were associated with activation (APOE, C3, CFH, GC and PLG), chemotaxis (C3, SCG2, SERPINA1, SERPINC1), and infiltration of leukocytes (APOA1, APOE, C3, PLG, KRT10) and neutrophils (C3, CFB, CFH, PLG). Up regulation of APOE, APOA1, APOH, GC and PLG in chagasic plasma was indicative of activation, binding and accumulation of macrophages in the disease state. Of the 19 differentially expressed inflammation-associated proteins, 11 proteins (APOE, C3, CFB, CFH, GSN, KRT10, SCG2, SERPINA1, SERPINC1, GC, and PLG) were carbonylated in chagasic plasma. […] Other proteins (APOE, C3, KRT3, and SCG2) were exposed to oxidation due to T. cruzi-induced, acute oxidative stress, but were normalized in expression and oxidation during the chronic phase.
Seventeen of the differentially expressed proteins in chagasic plasma, i.e., AFM, C4BPA, CACNA1D, DLGAP2, GC, KNG1, MUG1, MYLPF, MY05A, MY05B, PRPH, PZP, RAI14, and SCG2, were allotted to the lipid metabolism/molecular transport/small molecule biochemistry category (Table V) and functionally linked by IPA network analysis to lipid, fatty acid, and carbohydrate metabolism. A majority of the proteins in this category, i.e., ALB, APOA1, APOA4, APOE, APOH, C3, GC, GNAQ, MY05A, PLG, SCD2, SERPINA1, SERPINC1 and VIM, were linked to the synthesis, metabolism, transport, and modification of lipids and fatty acids, and to uptake and release or efflux of lipids, eicosanoids, and cholesterol. […]

[2] = system: T. cruzi; assay: Oxidative modification (carbonylation) of plasma proteins in chagasic rats treated with PBN and/or BZ; assay type: in vivo, rat; conditions: infected rats, plasma proteins
From the text: Certain embodiments include biomarkers identified in a previous study. Parasite persistence and oxidative damage in the heart are known to be of pathological significance during Chagas disease (Zacks et al., (2005) An Acad Bras Cienc, 77, 695-715; Gupta et al., (2009) Interdiscip Perspect Infect Dis, 2009, 190354). […] In the previous study the inventors identified 92 proteins that were differentially expressed or oxidized in chagasic plasma. Functional analysis allocated a majority of these proteins to inflammation/immunity and lipid metabolism categories, and to molecular pathways associated with cardiovascular dysfunction, e.g., myocardial infarction, hypertrophy, and fibrosis, and pulmonary embolism and hypertension. Some proteins in chagasic rats treated with PBN and/or BZ were allocated to curative pathways (immune regulation and cardiac remodeling). The 2D-GE results were validated by Western blotting. […] Increased plasma levels of GSN, MYL2, and VIM were directly correlated with the severity of cardiac disease in human chagasic patients. […] These findings have utility in diagnosing disease severity and designing suitable therapy for management of human chagasic patients. […]

[3] = system: T. cruzi; conditions: infected rats; BZ parasite-induced, PBN oxidative stress-induced (Wen et al. 2006, 2010); cited from earlier work

O=C(Cn1ccnc1[N+](=O)[O-])NCc1ccccc1 [BZ]
Spot# 34 Average Normalized Density × 100,000 [1]: 0.37 | Spot# 52, 54, 302 Average Normalized Density × 100,000 [1]: 0.60 | Spot# 94 Average Normalized Density × 100,000 [1]: 0.55 | Spot# 181 Average Normalized Density × 100,000 [1]: 7.53 | Spot# 586, 614 Average Normalized Density × 100,000 [1]: 132.20 | Spot# 672 Average Normalized Density × 100,000 [1]: 23.29 | Spot# 715 Average Normalized Density × 100,000 [1]: 30.96 | Spot# 745 Average Normalized Density × 100,000 [1]: 2.30 | preventing protein carbonylation [2]: not effective in preventing protein carbonylation | controlling parasite- and oxidative stress-induced pathology [3]: beneficial effects

Source: US9696323B2, “Biomarkers for chagas disease related cardiomyopathy” (THE BOARD OF REGENTS OF THE UNIVERSITY OF TEXAS SYSTEM, priority 2013, dated 2017)
